One experiment has as its target Cytochrome P450 2C9 (Homo sapiens, UniProt P11712). Particulars: Potency.
Experiment [1] has as its system HEK293. In words: PMA/Ionomycin-induced IL-8 production in HEK293- NF-kB-Luc stable cells. [Related pubchem assays: 1299, 1295, 1375, 1287, 1281, 1293, 1291, 1289, 1280, 465, 1364, 1282, 1372, 1365, 1367, 1366, 1266, 1269, 1373, 1292, 1290, 1302, 1371, 1283, 1271, 1294, 1374, 1368, 1369 ]. The class given is functional, cell-based. Particulars: Homo sapiens.
Experiment [2] deals with A-375. In words: A375 melanoma cell viability reduction, dose response, counter-screen for MITF modulator project, cherry-pick samples, set 2 (AID 540335). The format is functional, cell-based. To be noted: Homo sapiens. (In general: A counterscreen serves to expose hits that act by an unwanted route or on another target.)
A short description of experiment [3]: inhibitors of SNCA 5'UTR-driven reporter translation, confirmation, H4 neuroglioma cells, luminescence (AID 1988). The format is functional, cell-based.
For experiment [4], the system named is HEK293. In words: Cytotoxicity assay in HEK293 cells. [Related pubchem assays (depositor defined):AID1266, AID1269, AID1270, AID1271, AID1280, AID1281, AID1282, AID1283, AID1287, AID1289, AID1290, AID1291, AID1292, AID1293, AID1294, AID1295, AID1299, AID1302, AID1364, AID1365, AID1366, AID1367, AID1369, AID1370, AID1371, AID1372, AID1373, AID1374, AID1375, AID1384 …. The class given is functional, cell-based. Particulars: Homo sapiens.

A short description of experiment [5]: inhibitors of firefly luciferase expression or activity, dose response, H4 neuroglioma cells, luminescence (AID 1990). The class given is functional, cell-based.
Experiment [6] is described as follows: cytotoxicity in HEK-293T cells, dose response, cytotoxicity control for TCR NF-kB inhibitor project, luminescence, T-cell screen hits (AID 489026).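 Also: cells exposed to compound about 14 hours before the viability readout.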 The format is functional, cell-based.
Another experiment can be described thus: cells. The format is functional, cell-based.
Experiment [7] is described as follows: luciferase reporter signal reduction – luminescence, H4-C neuroglioblastoma cells, dose response (AID 2458).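 Also: H4 neuroglioblastoma cells stably carrying a luciferase reporter gene fusion.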 The format is functional, cell-based. (A reporter such as luciferase makes a cellular process visible.)
A further experiment relates to BJ. In words: cells. The class given is functional, cell-based. Particulars: Homo sapiens.
Experiment [8] addresses Luciferin 4-monooxygenase (Photinus pyralis, UniProt P08659). In words: In vitro luciferase assay using purified luciferase. [Related pubchem assays: 1299, 1270, 1295, 1375, 1287, 1281, 1293, 1291, 1289, 1280, 465, 1364, 1282, 1372, 1365, 1370, 1367, 1366, 1266, 1373, 1292, 1290, 1302, 1371, 1283, 1271, 1294, 1374, 1368, 1369 ].
Experiment [9] deals with HEK293. In words: PMA/Ionomycin induced NF-kB luciferase assay in 293- NF-kB-Luc stable cells. [Related pubchem assays: 1299, 1270, 1295, 1375, 1287, 1281, 1293, 1291, 1289, 1280, 465, 1364, 1282, 1372, 1365, 1370, 1367, 1366, 1269, 1373, 1292, 1290, 1302, 1371, 1283, 1271, 1294, 1374, 1368, 1369 ]. The class given is functional, cell-based. Particulars: Homo sapiens.
Experiment [10] in a line: inhibitors of SNCA 5'UTR-driven translation, confirmation, luminescence, H4 neuroglioblastoma cells, dose confirmation (AID 2454).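 Also: H4 neuroglioblastoma cells carrying an alpha-synuclein 5'UTR luciferase reporter; potency for inhibition of the luciferase signal.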 The class given is functional, cell-based.
Experiment [11] concerns A-375. In words: MITF: Counter assay: A375 proliferation Measured in Cell-Based System Using Plate Reader - 2084-03_Inhibitor_Dose_DryPowder_Activity. [Related pubchem assays (depositor defined):AID488944]. The format is functional. Particulars: Homo sapiens.
For experiment [12], the target named is T1, Microphthalmia-associated transcription factor (Homo sapiens, UniProt O75030).
T1 sequence (O75030 whole entry): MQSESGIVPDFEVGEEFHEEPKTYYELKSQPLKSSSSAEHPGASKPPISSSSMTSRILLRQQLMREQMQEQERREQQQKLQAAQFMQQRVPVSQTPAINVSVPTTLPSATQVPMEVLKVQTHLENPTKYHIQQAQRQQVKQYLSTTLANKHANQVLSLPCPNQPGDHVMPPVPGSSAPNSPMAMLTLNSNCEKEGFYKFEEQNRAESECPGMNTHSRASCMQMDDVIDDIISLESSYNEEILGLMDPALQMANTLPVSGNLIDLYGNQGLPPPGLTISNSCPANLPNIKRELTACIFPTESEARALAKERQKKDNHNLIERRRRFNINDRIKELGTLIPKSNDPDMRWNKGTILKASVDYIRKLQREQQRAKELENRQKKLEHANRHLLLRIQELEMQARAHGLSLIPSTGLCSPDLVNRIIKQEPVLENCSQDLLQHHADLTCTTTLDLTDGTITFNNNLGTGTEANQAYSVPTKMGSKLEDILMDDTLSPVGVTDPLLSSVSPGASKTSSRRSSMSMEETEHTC
In words: TRPM1 promoter luciferase signal decrease, dose response, MITF inhibitor project, cell-based, SK-MEL-5, cherry-picked, set 3 (AID 493073).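 Also: SK-MEL-5 melanoma cells with luciferase driven by the MITF target TRPM1 promoter.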 The format is functional.

For experiment [13], the system named is HEK293. In words: TNF Induced NF-kB Luciferase in 293-NF-kB-Luc Stable Cells. [Related pubchem assays: 1266, 1299, 1269, 1373, 1292, 1290, 1302, 1371, 1283, 1270, 1295, 1271, 1375, 1294, 1374, 1281, 1293, 1291, 1289, 1280, 465, 1368, 1364, 1282, 1372, 1365, 1369, 1370, 1367, 1366 ]. The class given is functional, cell-based. To be noted: Homo sapiens.
The target in a further experiment is Cytochrome P450 2C19 (Homo sapiens, UniProt P33261). In words: qHTS Assay for Inhibitors and Substrates of Cytochrome P450 2C19. [Related pubchem assays: 410 ]. The format is ADME. To be noted: read-out: Potency.
Cytochrome P450 2C19, sequence (P33261 whole entry): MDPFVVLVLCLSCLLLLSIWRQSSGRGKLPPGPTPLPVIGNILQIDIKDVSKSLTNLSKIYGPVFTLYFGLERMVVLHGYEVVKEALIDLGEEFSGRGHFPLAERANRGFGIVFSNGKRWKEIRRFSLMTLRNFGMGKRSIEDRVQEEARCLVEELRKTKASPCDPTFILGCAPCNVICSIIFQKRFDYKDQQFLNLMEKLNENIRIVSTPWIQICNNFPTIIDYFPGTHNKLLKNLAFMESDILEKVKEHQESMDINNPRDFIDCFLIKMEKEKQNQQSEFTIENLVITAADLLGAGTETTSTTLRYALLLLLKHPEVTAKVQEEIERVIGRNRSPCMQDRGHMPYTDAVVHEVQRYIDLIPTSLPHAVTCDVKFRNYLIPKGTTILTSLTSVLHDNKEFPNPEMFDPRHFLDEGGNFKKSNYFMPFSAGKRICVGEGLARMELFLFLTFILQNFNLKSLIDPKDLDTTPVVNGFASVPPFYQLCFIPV
In a further experiment the target is Cytochrome P450 2D6 (Homo sapiens, UniProt P10635). In words: qHTS Assay for Inhibitors and Substrates of Cytochrome P450 2D6. [Related pubchem assays: 410 ]. To be noted: read-out: Potency. The format is ADME.
Cytochrome P450 2D6, sequence (P10635 whole entry): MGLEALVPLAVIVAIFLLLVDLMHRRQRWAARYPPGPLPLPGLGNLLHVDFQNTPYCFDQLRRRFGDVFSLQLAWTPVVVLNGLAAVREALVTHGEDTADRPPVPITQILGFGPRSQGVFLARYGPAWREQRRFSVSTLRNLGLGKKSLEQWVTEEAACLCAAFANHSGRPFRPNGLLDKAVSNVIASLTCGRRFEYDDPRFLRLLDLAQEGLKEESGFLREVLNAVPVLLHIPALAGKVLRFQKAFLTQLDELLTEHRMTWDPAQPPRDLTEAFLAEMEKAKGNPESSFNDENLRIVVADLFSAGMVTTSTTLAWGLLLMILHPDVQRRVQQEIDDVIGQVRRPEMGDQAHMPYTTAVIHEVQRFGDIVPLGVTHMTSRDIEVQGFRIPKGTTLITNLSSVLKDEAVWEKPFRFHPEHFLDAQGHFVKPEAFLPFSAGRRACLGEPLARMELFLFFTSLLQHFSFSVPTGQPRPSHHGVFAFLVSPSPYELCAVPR
Another experiment has as its target Aspartyl aminopeptidase (Plasmodium falciparum 3D7, UniProt Q8I2J3).
A further experiment deals with Procathepsin L (Homo sapiens, UniProt P07711).
Procathepsin L, sequence (P07711 whole entry): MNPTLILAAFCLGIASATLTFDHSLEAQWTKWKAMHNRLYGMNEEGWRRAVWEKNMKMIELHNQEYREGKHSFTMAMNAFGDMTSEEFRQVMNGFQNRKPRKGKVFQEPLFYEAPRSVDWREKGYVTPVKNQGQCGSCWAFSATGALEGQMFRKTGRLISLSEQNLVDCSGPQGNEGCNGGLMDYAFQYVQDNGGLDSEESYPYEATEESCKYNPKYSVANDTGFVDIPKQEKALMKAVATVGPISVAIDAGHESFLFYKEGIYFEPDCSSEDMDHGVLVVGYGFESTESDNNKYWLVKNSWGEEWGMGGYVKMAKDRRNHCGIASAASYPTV

This note sets out measurements from ChEMBL document CHEMBL1201862, “PubChem BioAssay data set” (2004).

Active and inactive are the calls of the source.

Luciferin 4-monooxygenase, sequence (P08659 whole entry): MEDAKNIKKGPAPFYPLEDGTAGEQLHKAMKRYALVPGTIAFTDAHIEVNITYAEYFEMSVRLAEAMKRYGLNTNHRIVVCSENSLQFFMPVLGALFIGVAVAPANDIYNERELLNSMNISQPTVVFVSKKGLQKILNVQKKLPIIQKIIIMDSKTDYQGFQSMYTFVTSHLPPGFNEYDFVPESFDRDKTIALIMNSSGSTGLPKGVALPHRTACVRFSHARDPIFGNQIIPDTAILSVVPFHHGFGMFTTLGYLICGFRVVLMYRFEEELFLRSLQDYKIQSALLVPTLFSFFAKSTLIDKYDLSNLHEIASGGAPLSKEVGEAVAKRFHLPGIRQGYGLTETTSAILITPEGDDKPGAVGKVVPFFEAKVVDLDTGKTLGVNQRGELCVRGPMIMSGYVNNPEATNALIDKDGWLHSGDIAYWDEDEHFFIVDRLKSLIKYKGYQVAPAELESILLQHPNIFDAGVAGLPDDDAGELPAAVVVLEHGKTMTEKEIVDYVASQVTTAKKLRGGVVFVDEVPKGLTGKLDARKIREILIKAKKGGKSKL
Aspartyl aminopeptidase, sequence (Q8I2J3 whole entry): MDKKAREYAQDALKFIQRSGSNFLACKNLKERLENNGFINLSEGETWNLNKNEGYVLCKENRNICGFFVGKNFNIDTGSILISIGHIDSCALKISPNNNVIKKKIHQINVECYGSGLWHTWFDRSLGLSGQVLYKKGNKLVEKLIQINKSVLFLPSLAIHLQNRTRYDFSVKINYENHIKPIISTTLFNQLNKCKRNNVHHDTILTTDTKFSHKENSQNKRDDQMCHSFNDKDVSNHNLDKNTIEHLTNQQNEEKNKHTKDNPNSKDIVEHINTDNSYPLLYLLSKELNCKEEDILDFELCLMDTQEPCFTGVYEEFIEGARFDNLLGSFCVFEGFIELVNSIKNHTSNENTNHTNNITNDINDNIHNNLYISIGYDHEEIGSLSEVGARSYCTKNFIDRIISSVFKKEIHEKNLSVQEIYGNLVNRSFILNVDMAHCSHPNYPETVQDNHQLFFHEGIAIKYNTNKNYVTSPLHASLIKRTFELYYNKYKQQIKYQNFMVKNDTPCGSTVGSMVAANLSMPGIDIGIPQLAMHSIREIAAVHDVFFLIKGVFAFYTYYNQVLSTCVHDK
Cytochrome P450 2C9, sequence (P11712 whole entry): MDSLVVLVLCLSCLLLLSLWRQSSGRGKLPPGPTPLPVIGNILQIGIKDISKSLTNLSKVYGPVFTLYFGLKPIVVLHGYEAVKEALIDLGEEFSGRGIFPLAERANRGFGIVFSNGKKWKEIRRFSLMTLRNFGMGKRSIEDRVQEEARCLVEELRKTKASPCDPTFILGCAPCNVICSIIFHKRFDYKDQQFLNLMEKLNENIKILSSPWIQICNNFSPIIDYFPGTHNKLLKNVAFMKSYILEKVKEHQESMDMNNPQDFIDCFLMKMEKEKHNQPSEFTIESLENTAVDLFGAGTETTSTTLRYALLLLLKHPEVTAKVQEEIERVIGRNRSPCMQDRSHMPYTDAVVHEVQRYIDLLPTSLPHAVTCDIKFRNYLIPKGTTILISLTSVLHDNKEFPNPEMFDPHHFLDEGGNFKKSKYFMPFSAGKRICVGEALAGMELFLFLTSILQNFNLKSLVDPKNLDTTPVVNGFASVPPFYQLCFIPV

For `CC[C@H]1C(=O)OC[C@@H]1Cc1cncn1C`, on Cytochrome P450 2C9, the AC50 was 12.6 µM (inconclusive).
`COc1cc(C2C(C#N)=C(N)Oc3cc(N(C)C)ccc32)cc2c1OCO2` (stereo not given): the EC50 in the experiment on HEK293 [1] was > 8 µM (not active); in experiment [3] it was < 0.1 µM (active); in the experiment with HEK293 [4], > 8 µM (inactive); in experiment [5], < 0.1 µM (active); in the experiment “cells”, 0.116 µM (active); in [7], 0.096 µM (active). The EC50 is 121 µM (inconclusive) in the experiment on BJ; > 8 µM (not active) in experiment [8]; 2.18 µM (active) in the experiment with HEK293 [9]; 0.106 µM (active) in [10]; > 8 µM (not active) in the experiment with HEK293 [13]. The AC50 with A-375 [2] was > 35 µM (active); with A-375 [11], > 35 µM (active); in experiment [12], 0.601 µM (active). Also, the IC50 in [6] is > 80 µM (inactive).
With `COc1ccc2oc(-c3ccccc3)c(OC)c(=O)c2c1` [3,6-DIMETHOXYFLAVONE], the AC50 at Cytochrome P450 2C19 was 10 µM (inconclusive); on Cytochrome P450 2D6, 39.8 µM (inconclusive).
For the molecule `O=C(Nc1cccc([N+](=O)[O-])c1)Nn1cnnc1`, the IC50 was 0.93 µM (active) on Aspartyl aminopeptidase and > 59.6 µM (not active) against Procathepsin L.

As usually defined, the EC50 is the concentration at which the effect is half-maximal. Broadly, the IC50 is the concentration that inhibits the measured activity by half.
